# Read-outs that look alike come from different tables or passages of the source.
# Experiments:
# Escherichia coli = experiment: Broth assay for bio-enhancement of antibiotic killing, Gram-negative bacterium; settings: cow urine distillate 1 μl/mL
# Procedure: (§1) For this, the cells are treated with compound for 4 to 8 hours and then washed free of it by centrifugation and washing in sterile water. This was followed by treatment with antibiotic as in steps b to d.
# (§2) In the next step of elucidation of the enhancer action, the applicants experimented with the killing activities of different antibiotics against the bacteria singly and in combination with the test component (cow urine distillate) following the method described above. […] In all the experiments the cow urine distillate concentration was kept at 1 μl/mL unless it is specifically mentioned.
# Bacillus subtilis = experiment: Broth assay for bio-enhancement of antibiotic killing, Gram-positive bacterium; settings: cow urine distillate 1 μl/mL
# Procedure: as §1, §2
# Mycobacterium smegmatis = experiment: Broth assay for bio-enhancement of antibiotic killing, Mycobacterium smegmatis; settings: antibiotic 0.5 μg/ml; cow urine distillate 1 μl/mL
# Procedure: as §1, §2
# [1] = test system: oxyR mutant of bacterium Escherichia coli; type: cell-based
# fungal strains [2] = settings: active fraction Gm-IV, where present, at 10 μg/ml
# Procedure: (§3) The methodology followed by us for this screening included specifically designed bioassays as described below.
# as §1
# (§4) The Concentration of the Active Fraction is Kept at 10 μg/ml.
# fungal strains [3] = experiment: organism not typed; settings: read-out: Minimum inhibitory Concentration (MIC)
# Procedure: as §3, §1, §4
# [4] = Bioavailability test through biological membrane (U-tube); type: in vitro ADME, goat; settings: Rifampicin 1 mg/ml, Fraction Gm-IV (where present) 1.0 μg/ml
# [5] = test system: MCF-7 (Breast cancer cell line); type: cell-based; settings: for Final titre of viable cells upon treatment with taxol alone / Final titre of viable cells upon treatment with taxol + cow urine distillate: MCF-7, count after 36 hours; for Final titre of viable cells upon treatment with taxol + cow urine distillate: cow urine distillate 1 μl/ml
compound,measurement,setting,value
CC1(C)S[C@@H]2[C@H](NC(=O)[C@H](N)c3ccccc3)C(=O)N2[C@H]1C(=O)O [Ampicillin],Fold enhancement in antibiotic activity,Escherichia coli; antibiotic 4 μg/ml,1.85
same,Fold enhancement in antibiotic activity,Escherichia coli; antibiotic 6 μg/ml,4.50
same,Fold enhancement in antibiotic activity,Escherichia coli; antibiotic 8 μg/ml,5.00
same,Fold enhancement in antibiotic activity,Bacillus subtilis; antibiotic 0.1 μg/ml,3.3
same,Fold enhancement in antibiotic activity,Bacillus subtilis; antibiotic 0.5 μg/ml,3.0
same,Fold enhancement in antibiotic activity,Mycobacterium smegmatis,11.6
NNC(=O)c1ccncc1 [Isoniazid],enhancement action of the distillate for INH,[1],enhancement action
Clc1ccccc1C(c1ccccc1)(c1ccccc1)n1ccnc1 [Clotrimazol],Fold enhancement,fungal strains [2],0.0
same,MIC,fungal strains [3],4.4 µg/mL
CO[C@H]1/C=C/O[C@@]2(C)Oc3c(C)c(O)c4c(O)c(c(/C=N/N5CCN(C)CC5)c(O)c4c3C2=O)NC(=O)/C(C)=C\C=C\[C@H](C)[C@H](O)[C@@H](C)[C@@H](O)[C@@H](C)[C@H](OC(C)=O)[C@@H]1C [Rifampicin],OD measured as Absorbance across the membrane in receiving tube,"[4]; A340, after 1 hr",0.0097
same,OD measured as Absorbance across the membrane in receiving tube,"[4]; A340, after 2 hr",0.0214
same,OD measured as Absorbance across the membrane in receiving tube,"[4]; A340, after 4 hr",0.0771
same,OD measured as Absorbance across the membrane in receiving tube,"[4]; A340, after 5 hr",0.0858
same,OD measured as Absorbance across the membrane in receiving tube,"[4]; A340, after 6 hr",0.0910
same,OD measured as Absorbance across the membrane in receiving tube,"[4]; A475, after 1 hr",0.0177
same,OD measured as Absorbance across the membrane in receiving tube,"[4]; A475, after 2 hr",0.0284
same,OD measured as Absorbance across the membrane in receiving tube,"[4]; A475, after 3 hr",0.0309
same,OD measured as Absorbance across the membrane in receiving tube,"[4]; A475, after 4 hr",0.0412
same,OD measured as Absorbance across the membrane in receiving tube,"[4]; A475, after 5 hr",0.0484
same,OD measured as Absorbance across the membrane in receiving tube,"[4]; A475, after 6 hr",0.0496
"CC(=O)O[C@H]1C(=O)[C@@]2(C)[C@H]([C@H](OC(=O)c3ccccc3)[C@]3(O)C[C@H](OC(=O)[C@H](O)[C@@H](NC(=O)c4ccccc4)c4ccccc4)C(C)=C1C3(C)C)[C@]1(OC(C)=O)CO[C@@H]1C[C@@H]2O [Taxol, Paclitaxel]",Final titre of viable cells upon treatment with taxol alone,[5]; Taxol 0.001 μg/ml,0.059 × 10^6
same,Final titre of viable cells upon treatment with taxol + cow urine distillate,[5]; Taxol 0.001 μg/ml,0.039 × 10^6
same,Final titre of viable cells upon treatment with taxol alone,[5]; Taxol 0.005 μg/ml,0.042 × 10^6
same,Final titre of viable cells upon treatment with taxol + cow urine distillate,[5]; Taxol 0.005 μg/ml,0.032 × 10^6
same,Final titre of viable cells upon treatment with taxol alone,[5]; Taxol 0.01 μg/ml,0.036 × 10^6
same,Final titre of viable cells upon treatment with taxol + cow urine distillate,[5]; Taxol 0.01 μg/ml,0.012 × 10^6
same,killing action of Taxol with cow urine distillate,[5]; cancerous cell line MCF-7,increased
same,enhancement in the activity of taxol by the distillate,[5]; distillate at 1 μl/ml,at least 5 folds

# Source: patent US7235262B2, “Use of bioactive fraction from cow urine distillate (‘Go-mutra’) as a bio-enhancer of anti-infective, anti-cancer agents and nutrients” (Council of Scientific and Industrial Research, priority 2000, dated 2007)
